Tested on: SEM cells
Assay: cell viability relative to DMSO control; higher = less cytotoxic
Conditions: 48 h
Outline: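 Library compounds in DMSO were pin-dosed in an 11-point threefold series (47 μM to 0.79 nM) onto leukemia cells in 1536-well plates (5 μl). Plates held 500 cells/well of NOMO1 or SEM or 1000 cells/well of P12-Ichikawa, each adapted for at least four passages in each medium. Luminescence was read with CellTiter-Glo One after 48 h at 37°C. Viability means the per-plate percentage relative to DMSO wells, using cell-free wells as background.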

[1] = HPLM + 10% dialyzed FBS, 0.000781 µM
[2] = HPLM + 10% dialyzed FBS, 0.00234 µM
[3] = HPLM + 10% dialyzed FBS, 0.00702 µM
[4] = HPLM + 10% dialyzed FBS, 0.0211 µM
[5] = HPLM + 10% dialyzed FBS, 0.0632 µM
[6] = HPLM + 10% dialyzed FBS, 0.19 µM
[7] = HPLM + 10% dialyzed FBS, 0.569 µM
[8] = HPLM + 10% dialyzed FBS, 1.71 µM
[9] = HPLM + 10% dialyzed FBS, 5.12 µM
[10] = HPLM + 10% dialyzed FBS, 15.4 µM
[11] = HPLM + 10% dialyzed FBS, 46.1 µM
[12] = RPMI 5 mM glucose + 10% FBS, 0.000781 µM
[13] = RPMI 5 mM glucose + 10% FBS, 0.00234 µM
[14] = RPMI 5 mM glucose + 10% FBS, 0.00702 µM
[15] = RPMI 5 mM glucose + 10% FBS, 0.0211 µM
[16] = RPMI 5 mM glucose + 10% FBS, 0.0632 µM
[17] = RPMI 5 mM glucose + 10% FBS, 0.19 µM
[18] = RPMI 5 mM glucose + 10% FBS, 0.569 µM
[19] = RPMI 5 mM glucose + 10% FBS, 1.71 µM
[20] = RPMI 5 mM glucose + 10% FBS, 5.12 µM
[21] = RPMI 5 mM glucose + 10% FBS, 15.4 µM
[22] = RPMI 5 mM glucose + 10% FBS, 46.1 µM
[23] = RPMI 5 mM glucose + 10% dialyzed FBS, 0.000781 µM
[24] = RPMI 5 mM glucose + 10% dialyzed FBS, 0.00234 µM
[25] = RPMI 5 mM glucose + 10% dialyzed FBS, 0.00702 µM
[26] = RPMI 5 mM glucose + 10% dialyzed FBS, 0.0211 µM
[27] = RPMI 5 mM glucose + 10% dialyzed FBS, 0.0632 µM
[28] = RPMI 5 mM glucose + 10% dialyzed FBS, 0.19 µM
[29] = RPMI 5 mM glucose + 10% dialyzed FBS, 0.569 µM
[30] = RPMI 5 mM glucose + 10% dialyzed FBS, 1.71 µM
[31] = RPMI 5 mM glucose + 10% dialyzed FBS, 5.12 µM
[32] = RPMI 5 mM glucose + 10% dialyzed FBS, 15.4 µM
[33] = RPMI 5 mM glucose + 10% dialyzed FBS, 46.1 µM

| SMILES | cell viability [1] [%] | cell viability [2] [%] | cell viability [3] [%] | cell viability [4] [%] | cell viability [5] [%] | cell viability [6] [%] | cell viability [7] [%] | cell viability [8] [%] | cell viability [9] [%] | cell viability [10] [%] | cell viability [11] [%] | cell viability [12] [%] | cell viability [13] [%] | cell viability [14] [%] | cell viability [15] [%] | cell viability [16] [%] | cell viability [17] [%] | cell viability [18] [%] | cell viability [19] [%] | cell viability [20] [%] | cell viability [21] [%] | cell viability [22] [%] | cell viability [23] [%] | cell viability [24] [%] | cell viability [25] [%] | cell viability [26] [%] | cell viability [27] [%] | cell viability [28] [%] | cell viability [29] [%] | cell viability [30] [%] | cell viability [31] [%] | cell viability [32] [%] | cell viability [33] [%] |
| --- | --- | --- | --- | --- | --- | --- | --- | --- | --- | --- | --- | --- | --- | --- | --- | --- | --- | --- | --- | --- | --- | --- | --- | --- | --- | --- | --- | --- | --- | --- | --- | --- | --- |
| COC1=CC=C2C(=CC=NC2=C1)OC3=CC=C(NC(=O)\C4=C(C)\N(CC(C)(C)O)N(C4=O)C5=CC=CC=C5)C=C3F | 108 | 99.9 | 129 | 108 | 114 | 112 | 112 | 98.1 | 60.7 | 45.7 | 39.1 | 113 | 108 | 122 | 115 | 117 | 118 | 104 | 86.1 | 51.1 | 30.7 | 21.6 | 105 | 110 | 124 | 108 | 136 | 130 | 93.8 | 69.7 | 44.4 | 35.8 | 24.2 |
| O=P(O)(O)C(O)(Cc1cccnc1)P(=O)(O)[O][Na] (stereo not given) | 83 | 67.3 | 100 | 21.8 | 102 | 111 | 104 | 108 | 111 | 107 | 116 | 89.6 | 51.7 | 91 | 14.2 | 95.7 | 100 | 90.3 | 96.8 | 110 | 100 | 112 | 96.1 | 52.9 | 92.7 | 22.1 | 121 | 116 | 113 | 102 | 118 | 108 | 123 |
| CN(C(=O)c1ccc(F)cc1C(F)(F)F)C1CCN(c2nnc(-c3ccnn3C)c3ccccc23)CC1 | 50.4 | 67.5 | 60.6 | 62.4 | 79.4 | 85.1 | 69.4 | 78.6 | 79 | 80.6 | 49.2 | 69.2 | 74.8 | 71 | 85.5 | 83.3 | 77.6 | 91 | 86.2 | 74.1 | 86.8 | 59.8 | 56.3 | 61.4 | 61.9 | 70.8 | 66.7 | 80.4 | 65 | 86.1 | 79.2 | 83.3 | 41 |
| C=C1C[C@@]2(O)O[C@@]3(C[C@H]2C(C)C)[C@@H](C)CC[C@@H]13 | 90.3 | 85.5 | 68.4 | 109 | 105 | 108 | 23.6 | 41 | 100 | 108 | 95.1 | 117 | 109 | 78.5 | 125 | 113 | 122 | 21.8 | 41.5 | 116 | 108 | 111 | 81.8 | 110 | 77.2 | 97.3 | 96 | 104 | 21.5 | 29.9 | 105 | 111 | 93.2 |
| Cn1cc(-c2ccc3ncc(Cc4ccc5ncccc5c4)n3n2)cn1 | 93.2 | 108 | 103 | 98.8 | 101 | 112 | 94.3 | 99.5 | 89.9 | 72.8 | 71 | 113 | 117 | 122 | 109 | 131 | 122 | 115 | 107 | 123 | 74 | 79.4 | 96.2 | 103 | 102 | 101 | 112 | 109 | 111 | 106 | 98.8 | 71.2 | 67.3 |
| C[C@H]1CCC/C=C/C2C[C@H](O)C[C@H]2[C@H](O)/C=C/C(=O)O1 (stereo not given in full) | 15.7 | 31.7 | 17.9 | 5.79 | 5.21 | 5.3 | 5 | 4.73 | 2.72 | 2.09 | 2.38 | 11.4 | 54.4 | 44.6 | 9.33 | 5.67 | 6.09 | 5.62 | 4.83 | 3.32 | 3.06 | 2.16 | 4.97 | 29.4 | 23.6 | 5.2 | 4.1 | 3.92 | 3.96 | 3.5 | 2 | 1.85 | 1.45 |
| C[C@H]1[C@@H](CC(C[C@H]2O[C@@H]3O[C@]4(C)CC[C@H]5[C@H](C)CC[C@@H]([C@H]2C)[C@@]35OO4)C[S+](=O)([O-])c2ccc(COC(=O)N(C)C)cc2)O[C@@H]2O[C@]3(C)CC[C@H]4[C@H](C)CC[C@@H]1[C@@]24OO3 | 96.1 | 91.3 | 97.2 | 99.8 | 102 | 89.3 | 72.9 | 5.9 | 7.11 | 6.96 | 4.59 | 101 | 103 | 91.3 | 115 | 106 | 108 | 23.9 | 6.39 | 7.58 | 7.01 | 5.47 | 109 | 112 | 94.1 | 105 | 107 | 104 | 27.5 | 6.28 | 6.52 | 6.47 | 4.61 |
| O=C(NC1CC1)c1cccc(-c2ccc3c(NC(=O)C4CC4)n[nH]c3c2)c1 | 98.9 | 98.1 | 107 | 96.2 | 97.6 | 95.1 | 97.2 | 98.5 | 90 | 62.8 | 18.8 | 97.1 | 106 | 109 | 107 | 103 | 98.4 | 103 | 113 | 89.4 | 51.3 | 11.1 | 103 | 108 | 104 | 104 | 116 | 115 | 102 | 104 | 86.1 | 56.9 | 18.2 |
| C[Se]CCC(N)C(=O)O (stereo not given) | 50.5 | 87.2 | 86.1 | 94.7 | 75.6 | 71.3 | 82.8 | 71.5 | 86.4 | 78.1 | 72 | 65.1 | 83.9 | 107 | 95.4 | 89.8 | 95 | 85.9 | 88.5 | 103 | 100 | 98.1 | 51.5 | 100 | 96.6 | 94.4 | 73.1 | 101 | 90.4 | 84.1 | 94.2 | 100 | 88.7 |
| NC12CC3CC(CC(C3)C1)C2 | 45.1 | 106 | 70.8 | 106 | 125 | 114 | 113 | 124 | 98.1 | 123 | 119 | 42.3 | 102 | 70.6 | 104 | 109 | 109 | 102 | 107 | 89 | 110 | 104 | 33.7 | 96.5 | 71.4 | 108 | 114 | 115 | 112 | 122 | 110 | 131 | 107 |
| CCOC(=O)c1ncn2c1CN(C)C(=O)c1cc(F)ccc1-2 | 78.9 | 104 | 87.2 | 93.3 | 92.9 | 94.3 | 97.2 | 90.7 | 79.8 | 84.6 | 52.9 | 94.6 | 111 | 112 | 92.5 | 105 | 98.6 | 98.8 | 93.6 | 67.5 | 57.1 | 46.8 | 99 | 107 | 109 | 113 | 116 | 131 | 117 | 87.3 | 75.6 | 79.6 | 43.9 |
| CC(C)c1ccc2oc3nc(N)c(C(=O)O)cc3c(=O)c2c1 | 106 | 109 | 96.6 | 109 | 126 | 108 | 128 | 115 | 106 | 118 | 102 | 116 | 131 | 122 | 122 | 145 | 134 | 150 | 121 | 134 | 140 | 137 | 98 | 118 | 134 | 141 | 141 | 131 | 143 | 127 | 146 | 146 | 129 |
| CCC(=O)O[C@@]1([C@H](C)C[C@H]2[C@@H]3C[C@H](F)\C4=C\C(=O)\C=C/[C@]4(C)[C@@]3(F)[C@@H](O)C[C@]12C)C(=O)SCF | 96.6 | 102 | 94.7 | 68 | 60.6 | 13.1 | 66.1 | 79.4 | 64.9 | 61.9 | 58 | 94.2 | 103 | 88.6 | 67.8 | 53.2 | 13.1 | 68.6 | 73 | 68.6 | 59.5 | 59.6 | 98.1 | 124 | 83.6 | 73.5 | 40.5 | 11.7 | 58.8 | 63.4 | 60.6 | 53.3 | 53.4 |
| CNC(=O)c1c(F)cccc1Nc1nc(Nc2cc3c(cc2OC)CCN3C(=O)CN(C)C)nc2[nH]ccc12 | 84.8 | 92.2 | 94.8 | 100 | 83.5 | 58.3 | 40.5 | 31.9 | 22 | 3.15 | 1.16 | 90.3 | 90.5 | 83.2 | 97.9 | 88.7 | 51 | 34.8 | 27.3 | 13.5 | 1.01 | 0.384 | 93.6 | 96.8 | 93.6 | 105 | 94.7 | 58.4 | 32.8 | 30.2 | 13.4 | 2.8 | 0.739 |
| COc1ccc(-c2nc3cc(C4=NNC(=O)CC4C)ccc3[nH]2)cc1 (stereo not given) | 86.8 | 90.5 | 99.6 | 107 | 109 | 106 | 98.7 | 101 | 111 | 92.5 | 75.4 | 92.2 | 95.2 | 105 | 102 | 112 | 121 | 111 | 120 | 101 | 119 | 90.8 | 93.6 | 91.6 | 111 | 110 | 113 | 110 | 107 | 120 | 110 | 115 | 84.4 |
